Measured values taken from paper PMC7391726, “Fatty acid mimetic PBI-4547 restores metabolic homeostasis via GPR84 in mice with non-alcoholic fatty liver disease” (Scientific Reports, 2020).

What was measured:
[1] = molecular target: T1, PPARγ (Homo sapiens, UniProt P37231); experiment: LanthaScreen TR-FRET competitive binding assay, PPARγ LBD; conditions: Cheng-Prusoff; read-out: Ki inhibition constant, PPARγ LBD
T1 construct: glutathione S-transferase (GST)-tagged human PPAR-LBD; purchased Fisher Scientific
T1 sequence (P37231 238-503 limits assumed): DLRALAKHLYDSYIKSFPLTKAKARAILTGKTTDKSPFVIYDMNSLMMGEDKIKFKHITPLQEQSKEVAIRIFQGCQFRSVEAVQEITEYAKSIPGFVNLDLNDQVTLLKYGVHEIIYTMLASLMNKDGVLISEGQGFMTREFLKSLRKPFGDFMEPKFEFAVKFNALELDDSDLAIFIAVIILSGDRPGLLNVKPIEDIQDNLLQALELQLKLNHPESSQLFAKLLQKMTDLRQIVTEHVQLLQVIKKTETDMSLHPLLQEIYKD
Source text: The peroxisome proliferator-activated receptors (PPARs), PPARα, PPARδ, and PPARγ are ligand-dependent transcription factors regulated by FAs, including MCFAs, which control expression of several key metabolism-associated genes. We thus characterized the binding and transcriptional activity of PBI-4547 to these receptors. A LanthaScreen TR-FRET competitive binding assay was used to determine the binding affinity of PBI-4547 in comparison to the full control agonists GW7647 (PPARα), GW0742 (PPARδ), and rosiglitazone (PPARγ).
The LanthaScreen time-resolved fluorescence resonance energy transfer (TR-FRET) PPARα, PPARδ and PPARγ competitive binding assay (Fisher Scientific) was performed according to the manufacturer’s protocol. […] The FRET signal was measured using an Infinite M1000 microplate reader by excitation at 332 nm and emission at 520 nm for fluorescein and 490 nm for terbium. Competitive ligand binding to PPAR is detected by a test compound’s ability to displace the Fluormone pan-PPAR Green from the LBD, which results in a decrease of the 520 nm/490 nm TR-FRET ratio. The inhibition constant (Ki) of the competitor ligand was calculated by applying the Cheng-Prusoff equation.

[2] = molecular target: T2, PPARγ (Homo sapiens, UniProt P37231); experiment: Cell-based GAL4 transactivation assay in HEK293 cells, PPARγ LBD
T2 construct: PPARγ (S176–Y477); expressed in transfected cells; host or cells: HEK293
T2 sequence (P37231 176-477 isoform P37231-2): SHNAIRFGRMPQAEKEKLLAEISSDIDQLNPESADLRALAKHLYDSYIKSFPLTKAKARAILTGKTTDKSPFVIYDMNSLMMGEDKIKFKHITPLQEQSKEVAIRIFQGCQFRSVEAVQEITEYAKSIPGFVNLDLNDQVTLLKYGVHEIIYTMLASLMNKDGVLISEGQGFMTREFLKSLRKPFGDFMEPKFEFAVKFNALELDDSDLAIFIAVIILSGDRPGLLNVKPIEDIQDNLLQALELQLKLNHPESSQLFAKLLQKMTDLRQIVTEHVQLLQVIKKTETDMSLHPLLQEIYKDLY
Source text: To determine the transcriptional activity of PBI-4547, a cell-based GAL4 transactivation assay in HEK293 cells transfected with either PPARα, PPARδ, or PPARγ LBD was used. […] However, PBI-4547 only partially activated PPARγ transcriptional activity, with a relative maximal efficacy of 38% of the control agonist rosiglitazone.
Generation of the Gαi2, Gαq, and GPR40/β-arrestin-2 BRET biosensors have been described previously. A plasmid encoding the human GPR120-L (long isoform) cDNA was obtained from R&D Systems. GPR120-S (short isoform) was generated by replacing the BglII-BsgI fragment from GPR120-L by a gBlock gene fragment (Integrated DNA Technologies, Coralville, IA) lacking the DNA sequence corresponding to the extra 16 amino acids found in the third intracellular loop of the long form. The GPR120-GFP10 construct was generated by inserting PCR-amplified GPR120-S (without its stop codon) in place of GPR40 in the GPR40-GFP10 plasmid. […]
HEK293 cells were co-transfected with pGL4.35[luc2P/9XGAL4UAS/Hygro] and GAL4-PPAR-Rluc plasmids, and after 24 h of incubation were treated with compounds for 24 h. Luciferase activity was determined with the Dual Glo luciferase assay (Promega). Firefly luminescence was normalized to the constitutively expressed Renilla luminescence, and results expressed as fold induction of vehicle control.

[3] = test system: standard diet-fed mice; experiment: Standard diet-fed mice; assay type: in vivo, mouse
Source text: The well-established high-fat diet (HFD) mouse model of obesity was used to study the impact of PBI-4547 on the onset and progression of NAFLD. A 14-week HFD regimen led to significant weight gain in both male and female mice. […] Moreover, PBI-4547 decreased serum triglycerides while enhancing adiponectin levels. […] Of note, the effects of PBI-4547 on bodyweight, food consumption, glucose tolerance, fasting blood glucose, insulin resistance and HOMA-β indices were absent in standard diet-fed mice (Table S1).
WT or Gpr84^−/− mice, as previously described, (aged 10–14 weeks at the beginning of the experiment) were either fed a standard diet (STD) or a high-fat diet (HFD) (Envigo #TD.06414) for 14 weeks. At this point, mice were administered either vehicle (water) or PBI-4547 (10 mg/kg) on a daily basis for 6 (WT study) or 8 (WT vs KO study) weeks by gastric gavage, and were sacrificed thereafter. Liver and WAT tissues were fixed in 10% formalin for histological analyses or flash frozen in liquid nitrogen for RT-PCR analyses. All animal studies were reviewed and approved by the animal care and use committee of the Institut National de la Recherche Scientifique – Armand-Frappier (Laval, QC, Canada) and the University of Ottawa’s Animal Care and Veterinary Services (Ottawa, ON, Canada). Protocols were approved and undertaken according to the Canadian Council on Animal Care guidelines.

Structure (SMILES): CCCCCc1cc(CCCCC)cc(CC(=O)[O-])c1.[Na+] [PBI-4547, 2-[3,5-dipentylphenyl]acetate sodium salt]
- Ki [1]: 0.088 µM
- EC50 ([2]; HEK293, 24 h, read-out: EC50, PPARγ transcriptional activity): 3.6 µM
- Emax ([2]; HEK293, of the control agonist rosiglitazone, read-out: relative maximal efficacy, PPARγ transcriptional activity): 38%
- effects on bodyweight, food consumption, glucose tolerance, fasting blood glucose, insulin resistance and HOMA-β indices [3]: absent
